Results as given in paper PMC10835127, “Viruses traverse the human proteome through peptide interfaces that can be biomimetically leveraged for drug discovery” (Proceedings of the National Academy of Sciences of the …, 2024).
Like-named read-outs stand apart in the source and are kept apart here.

Experiments:
[1] = tested on: HIV1 strain NL4-3; format: cell-based
[2] = tested on: HCV replicon; format: cell-based
[3] = tested on: F. novicida (strain U112); format: cell-based
[4] = tested on: influenza A H1N1 virus; conditions: 48 hr post-treatment, A549
[5] = tested on: EBV
[6] = normalized mean of HIV1 replication readout
[7] = normalized mean of HCV replicon readout
[8] = normalized mean of EBV replication readout
[9] = normalized mean of HIV1 replication readout, peptide screen
[10] = normalized mean of HCV replicon readout, peptide screen
[11] = normalized mean of EBV replication readout, peptide screen

Row | Substance | HIV1 Norm MEAN [1, 6] | HCV Norm MEAN [2, 7] | Francisella novicida Norm AUC [3] | Neuraminidase activity normalized to vehicle ([4]; 200 µM peptide) | Neuraminidase activity normalized to vehicle ([4]; 0,823 µM peptide) | Neuraminidase activity normalized to vehicle ([4]; 22,2 µM peptide) | Neuraminidase activity normalized to vehicle ([4]; 2,4691 µM peptide) | Neuraminidase activity normalized to vehicle ([4]; 7,4074 µM peptide) | Neuraminidase activity normalized to vehicle ([4]; 66,6667 µM peptide) | EBV Norm MEAN [5, 8] | HIV1 Norm MEAN [1, 9] | HCV Norm MEAN [2, 10] | EBV Norm MEAN [5, 11] | HIV1 Norm MEAN [1] | HCV Norm MEAN [2] | EBV Norm MEAN [5]
1 | AAAVAFL [CPEP117] | 0.6808 | 0.1615 | 0.9738 | 0,72 | 0,8345 | 0,8782 | 0,8234 | 0,8773 | 0,8792 | 1.118 | – | – | – | – | – | –
2 | ACTNCYCKKCCFHCQVC [CPEP100] | – | – | 1.04 | 1,0893 | 1,092 | 1,1329 | 0,9938 | 1,0674 | 1,0274 | – | 0.1546 | 0.4928 | 1.687 | – | – | –
3 | AHQNSQTHQASLSKQ [CPEP43] | – | – | 1.137 | 0,8034 | 0,7858 | 0,9843 | 0,876 | 0,8511 | 0,7841 | – | 0.3977 | 1.077 | 0.682 | – | – | –
4 | ARARALARGAGPANSV [CPEP47] | – | – | 0.949 | 1,0179 | 1,0745 | 1,1923 | 1,0399 | 1,1089 | 1,0424 | – | 2.79 | 1.1445 | 1.295 | – | – | –
5 | CMSCCRSSRTRRETQL [CPEP57] | – | – | 0.5573 | 0,9828 | 1,0672 | 1,1821 | 0,702 | 1,111 | 0,9599 | – | 1.032 | 0.7555 | 0.8928 | – | – | –
6 | CPEP14: peptide of the viral peptide library; sequence page not shown (ILHTPGCVPCVR) | 0.4683 | 0.5608 | 1.22 | 0,9254 | 0,9272 | 1,0033 | 0,9392 | 0,9017 | 1,0554 | 1.5484 | – | – | – | – | – | –
7 | CPEP52: peptide of the viral peptide library; sequence page not shown (CFITKALGISYG) | 5.563 | 0.3655 | 2.021 | 0,1673 | 0,9576 | 1,0146 | 1,1215 | 0,9392 | 0,5319 | 2.225 | – | – | – | – | – | –
8 | CPEP61: peptide of the viral peptide library; sequence page not shown (KRRKSGAKRR) | 1.461 | 0.1619 | 0.6493 | 0,867 | 1,0166 | 1,0577 | 1,0813 | 0,9769 | 1,1022 | 3.372 | – | – | – | – | – | –
9 | PEPTAPPEE [CPEP147] | – | – | 1.176 | – | – | – | – | – | – | – | – | – | – | 0.3632 | 1.15 | 0.5114
